Experimental data taken from US20230000813A1, “COMPOUND FOR THE TREATMENT OF BOVINE OR SWINE RESPIRATORY DISEASE” (Intervet Inc., priority 2016, published 2023).
≈ marks a conversion by molar mass, not a printed value.

Tests used:
Experiment in all cases: MIC, broth-microdilution (CLSI VET01-A4)
Type in all cases: cell-based
[1] = tested on: Mannheimia haemolytica MH 10720 (154, BRD field isolate); conditions: Mannheimia haemolytica MH 10720
Procedure, shortened: (§1)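 Doubling dilution series in microdilution trays; endpoint = lowest conc. without visible growth (no turbidity, unaided eye); interpretation per CLSI VET01-S3.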

[2] = tested on: Mannheimia haemolytica MH 12587 (1071, BRD field isolate, macrolide-resistance: erm+, E+); conditions: Mannheimia haemolytica MH 12587, macrolide-resistant
Procedure, shortened: as §1

[3] = tested on: Mannheimia haemolytica MH 6357 (M7/2, reference strain, cattle infection strain); conditions: Mannheimia haemolytica MH 6357; read-out: MIC MH 6357
Procedure, shortened: as §1

[4] = tested on: Mannheimia haemolytica MH 6374 (ATCC 33396, reference strain); conditions: Mannheimia haemolytica MH 6374; read-out: MIC MH 6374
Procedure, shortened: as §1

[5] = tested on: Pasteurella multocida PM 10775 (080130003051, BRD field isolate); conditions: Pasteurella multocida PM 10775
Procedure, shortened: as §1

[6] = tested on: Pasteurella multocida PM 12080 (IV102277-0093, BRD field isolate); conditions: Pasteurella multocida PM 12080; for MIC: read-out: MIC PM 12080
Procedure, shortened: as §1

[7] = tested on: Pasteurella multocida PM 6267 (P 2225 (L386), reference strain, mouse infection strain); conditions: Pasteurella multocida PM 6267
Procedure, shortened: as §1

[8] = tested on: Pasteurella multocida PM 6391 (ATCC 43137, reference strain); conditions: Pasteurella multocida PM 6391; for MIC: read-out: MIC PM 6391
Procedure, shortened: as §1

[9] = tested on: Mannheimia haemolytica MH 13065 (XB0446-6003.9, BRD field isolate)
Procedure, shortened: (§2)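 Broth microdilution per CLSI VET01-A4 using doubling dilution series of compound. MIC taken as the lowest concentration with no turbidity visible to the unaided eye, interpreted per CLSI VET01-S3.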

[10] = tested on: Mannheimia haemolytica MH 13093 (XB0472-6014.1, BRD field isolate)
Procedure, shortened: as §2

Compound | MIC MH 10720 [1] | MIC MH 12587 [2] [µM] | MIC [3] [µM] | MIC [4] [µM] | MIC PM 10775 [5] | MIC PM 12080 [6] | MIC PM 6267 [7] | MIC PM 6391 [8] | MIC [9] [µM] | MIC [10] [µM] | MIC ([1]; read-out: MIC MH 10720) [µM] | MIC [8] [µM] | MIC ([5]; read-out: MIC PM 10775) [µM] | MIC [6] [µM] | MIC ([7]; read-out: MIC PM 6267) [µM]
CC(C)(N)C(NC(=O)c1ccc(C#Cc2ccc(CNCc3nccs3)s2)cc1)C(=O)NO (stereo not drawn) [Compound 564] | <=0.1 μM | 0.8 (≈ 0.387 µg/mL) | 0.8 (≈ 0.387 µg/mL) | 0.4 (≈ 0.193 µg/mL) | <=0.1 μM | <=0.1 μM | <=0.1 μM | <=0.1 μM | 0.8 (≈ 0.387 µg/mL) | 0.8 (≈ 0.387 µg/mL) | – | – | – | – | –
CC(C)(C(NC(=O)c1ccc(C#Cc2ccc(CNCc3ccncc3)cc2)cc1)C(=O)NO)S(C)(=O)=O (stereo not drawn) [C. 607] | <=0.1 μM | 0.8 (≈ 0.428 µg/mL) | 0.4 (≈ 0.214 µg/mL) | 0.4 (≈ 0.214 µg/mL) | <=0.1 μM | <=0.1 μM | <=0.1 μM | <=0.1 μM | 0.4 (≈ 0.214 µg/mL) | 0.4 (≈ 0.214 µg/mL) | – | – | – | – | –
C[C@@H](O)[C@H](NC(=O)c1ccc(C#Cc2ccc(CNCc3ccco3)cc2)cc1)C(=O)NO [C. 259] | <=0.1 μM | 0.4 (≈ 0.179 µg/mL) | 0.2 (≈ 0.0895 µg/mL) | 0.2 (≈ 0.0895 µg/mL) | <=0.1 μM | <=0.1 μM | <=0.1 μM | <=0.1 μM | 0.4 (≈ 0.179 µg/mL) | 0.4 (≈ 0.179 µg/mL) | – | – | – | – | –
CSC(C)(C)[C@H](NC(=O)c1ccc(C#Cc2ccc(CNCc3nccs3)cc2)cc1)C(=O)NO [Compound 600] | – | 1.6 (≈ 0.814 µg/mL) | 0.8 (≈ 0.407 µg/mL) | 1.6 (≈ 0.814 µg/mL) | <=0.1 μM | <=0.1 μM | <=0.1 μM | – | 0.8 (≈ 0.407 µg/mL) | 0.8 (≈ 0.407 µg/mL) | 0.2 (≈ 0.102 µg/mL) | 0.4 (≈ 0.203 µg/mL) | – | – | –
CSC(C)(C)[C@H](NC(=O)c1ccc(C#Cc2ccc(CNCc3ccncc3)cc2)cc1)C(=O)NO [Compound 587] | <=0.1 μM | 0.8 (≈ 0.402 µg/mL) | 0.4 (≈ 0.201 µg/mL) | 0.8 (≈ 0.402 µg/mL) | <=0.1 μM | <=0.1 μM | <=0.1 μM | <=0.1 μM | 0.4 (≈ 0.201 µg/mL) | 0.4 (≈ 0.201 µg/mL) | – | – | – | – | –
CC(C)(N)C(NC(=O)c1ccc(C#Cc2ccc(CNCc3ccc(F)cc3)s2)cc1)C(=O)NO (racemic) [Compound 637] | <=0.1 μM | 1.6 (≈ 0.791 µg/mL) | 0.8 (≈ 0.396 µg/mL) | 0.4 (≈ 0.198 µg/mL) | – | – | <=0.1 μM | – | 1.6 (≈ 0.791 µg/mL) | 0.8 (≈ 0.396 µg/mL) | – | 0.4 (≈ 0.198 µg/mL) | 0.2 (≈ 0.0989 µg/mL) | 0.2 (≈ 0.0989 µg/mL) | –
CCC(C)C(NC(=O)c1ccc(C#Cc2ccc(CNCc3cccnc3)cc2)cc1)C(=O)NO (stereo not drawn) [Compound 299] | <=0.1 μM | 1.6 (≈ 0.753 µg/mL) | 0.4 (≈ 0.188 µg/mL) | 0.8 (≈ 0.376 µg/mL) | <=0.1 μM | – | – | – | 0.8 (≈ 0.376 µg/mL) | 0.8 (≈ 0.376 µg/mL) | – | 1.6 (≈ 0.753 µg/mL) | – | 0.4 (≈ 0.188 µg/mL) | 0.2 (≈ 0.0941 µg/mL)
CC(C)C(NC(=O)c1ccc(C#Cc2ccc(CNCc3ccco3)cc2)cc1)C(=O)NO (stereo not drawn) [Compound 290] | <=0.1 μM | 0.4 (≈ 0.178 µg/mL) | 0.2 (≈ 0.0891 µg/mL) | 0.4 (≈ 0.178 µg/mL) | <=0.1 μM | – | <=0.1 μM | – | 0.4 (≈ 0.178 µg/mL) | 0.4 (≈ 0.178 µg/mL) | – | 0.4 (≈ 0.178 µg/mL) | – | 0.2 (≈ 0.0891 µg/mL) | –
CSC(C)(C)[C@H](NC(=O)c1ccc(C#Cc2ccc(CNCc3cccs3)cc2)cc1)C(=O)NO [Compound 597] | <=0.1 μM | 1.6 (≈ 0.812 µg/mL) | 0.8 (≈ 0.406 µg/mL) | 0.8 (≈ 0.406 µg/mL) | <=0.1 μM | <=0.1 μM | <=0.1 μM | – | 0.8 (≈ 0.406 µg/mL) | 0.8 (≈ 0.406 µg/mL) | – | 0.2 (≈ 0.102 µg/mL) | – | – | –
